Test results published in patent US9796700B2 (Celgene CAR LLC, priority 2013, dated 2017).
Read-outs that look alike come from different tables or passages of the source.

Experiments:
[1] = target: T1, Erk1 (Homo sapiens (Human), UniProt P27361); test: Protein Mass Modification Assay (intact protein MALDI); format: binding
How it was run: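 Human Erk1 was incubated 60 min at room temperature with a 10-fold molar excess of compound, then analysed as intact protein by MALDI with sinapinic acid matrix. The centroid mass shift versus untreated protein was divided by compound molecular weight to give percent modified protein.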
Target sequence in this assay (P27361 whole entry, looked up): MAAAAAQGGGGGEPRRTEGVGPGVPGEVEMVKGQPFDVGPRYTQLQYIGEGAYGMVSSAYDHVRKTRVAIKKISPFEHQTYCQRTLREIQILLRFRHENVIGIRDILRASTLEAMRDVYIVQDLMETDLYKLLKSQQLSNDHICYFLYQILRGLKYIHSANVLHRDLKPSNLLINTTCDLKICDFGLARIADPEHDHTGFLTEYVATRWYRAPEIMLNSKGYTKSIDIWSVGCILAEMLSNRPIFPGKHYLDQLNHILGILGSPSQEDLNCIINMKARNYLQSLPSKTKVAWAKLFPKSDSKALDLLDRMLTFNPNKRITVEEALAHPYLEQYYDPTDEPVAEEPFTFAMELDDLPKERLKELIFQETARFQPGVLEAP

[2] = target: T1, Erk1; test: Measurement of Erk occupancy with biotinylated covalent probe I-299; format: cell-based; conditions: HT-29 cells
Protocol: Measurement of Erk Occupancy with Biotinylated Covalent Probe
This experiment measured occupancy of the ERK1 target by compounds according to the invention. This experiment was conducted using the Mesoscale Discovery test kit (Cat. #N45107B). One day before the assay, cells were split and added at 50,000 cells per well to a flat-bottom 96 well plate in 200 μl of growth medium. The next day, the medium was discarded, 100 μl medium containing test compound was added, and the plate was incubated at 37° C. for 120 minutes. The plate was rinsed once with PBS, and 50 μl lysis buffer with test compound was added. The plate was incubated at 4° C. for 30 min, and 30 μl of lysate was transferred to a plate to capture total and phosphor-Erk. Biotinylated probe I-299 was diluted in lysis buffer and added to each well to a final concentration of 0.2 μM. The plate was incubated for 2 hr under constant shaking at room temperature. The plate was washed 3 times with MSD wash buffer. To detect the biotinylated probe bonding, tagged streptavidin was added (MSD, Cat#R32AD-1) at 1 μg/ml, 25 μl/well, followed by a 60 min incubation under shaking. The plate was washed 3 times, 150 μl MSD Read Buffer (Cat#R61TX) was added and the plate was read in a plate reader manufactured by MSD. Percent occupancy by test compound at Erk was calculated by comparing the chemiluminescence readings from treated cells as compared to the chemiluminescence readings in untreated controls (which are defined as 100% probe bonding or 0% occupancy). The amount of covalent probe signal divided by the amount of ERK signal for samples with no test compound treatment represents the maximum probe signal (MPS). In samples treated with test compound prior to covalent probe, the ratio of probe signal to ERK signal (the test probe signal, TPS) was reduced by the degree of target occupancy by the test compound which blocks covalent probe binding. The difference between the MPS and the TPS, divided by the MPS gave the target occupancy by the test compound. This ratio was then expressed as a percent occupancy. Results from this assay are provided in Table A below under the column “Occupancy EC50 (nM) HT-29.”
Target sequence in this assay (P27361 2-379 limits assumed): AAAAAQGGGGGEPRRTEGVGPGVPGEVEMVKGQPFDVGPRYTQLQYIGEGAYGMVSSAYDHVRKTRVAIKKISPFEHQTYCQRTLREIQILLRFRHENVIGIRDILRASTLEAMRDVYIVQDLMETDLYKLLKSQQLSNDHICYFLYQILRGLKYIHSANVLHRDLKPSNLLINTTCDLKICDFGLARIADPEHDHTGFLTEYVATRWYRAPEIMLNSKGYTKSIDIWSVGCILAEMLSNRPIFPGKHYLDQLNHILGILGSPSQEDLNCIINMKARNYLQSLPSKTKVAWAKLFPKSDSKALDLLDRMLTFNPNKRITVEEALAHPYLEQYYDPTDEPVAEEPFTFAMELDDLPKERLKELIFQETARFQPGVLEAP

[3] = target: MEK1 activated ERK1 (Homo sapiens (Human), UniProt P27361); test: Omnia continuous-read kinase assay for potency against MEK1 activated ERK1; format: biochemical; conditions: MEK1 activated ERK1, WT, ATP at KM
How it was run: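 Apparent IC50 came from initial reaction slopes (RFU vs time) plotted against log inhibitor with a variable-slope fit. Reactions were started with ERK1 (4 nM final) added to 50 μM ATP, roughly at its appKM, and 10 μM Sox-conjugated ST17 peptide in 20 mM Tris pH 7.5, 5 mM MgCl2. Fluorescence was monitored every 71 seconds.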

[4] = tested on: HT-29 cells; test: Measurement of inhibition of cancer cell proliferation (CellTiterGlo); format: cell-based; conditions: Homo sapiens, 72 hours
Protocol: Measurement of Inhibition of Cancer Cell Proliferation
HT-29 cells were split and 3000 cells in 100 μl of growth medium were added per well of a flat-bottom 96-well plate. A two-fold test compound solution in serum-free RPM1640 was made, starting at 5,000 nM. Then, 3-fold serial dilutions were made across the plate from well 1 to well 11. Well 12, the last well in a row on the plate, was left as untreated control. 100 μl compound solutions were then transferred to the wells, so the total volume of media was 200 μl per well. Plates were returned to a 37° C. incubator, and the cells were cultured for 72 hours. To measure cell proliferation after 72 hours, media was discarded from the plates, 50 μl/well of fresh medium was added, and 50 μl CellTiterGlo solution was added (Promega Cat#G7573). The plate was covered with a dark lid and incubated for 10 min. A sealing tape was applied to the bottom of the plate, and the plate was read in a luminescence plate reader. […] A 2-fold serial dilution was used to generate 8 cell densities from 50,000-390 cells per well in 50 μl media. 50 μl CellTiterGlo was added per well, and the plate was read in a luminescence plate reader after 10 min. The reading was plotted vs. cell number to generate a standard curve and the equation of the curve fit. The compound-treated sample luminescence readings were converted to cell numbers using the equation. The percent of inhibition, using untreated control as 100% growth, was then calculated. GI50 was then calculated by GraphPad Prism.

[5] = tested on: ERK1 phosphorylation of its substrate RSK in HT29 cells; test: pRSK MSD Assay in HT29 cells; format: cell-based; conditions: Homo sapiens
Protocol: The protocol below describes an assay to measure the kinase activity of ERK1 to phosphorylate its substrate, RSK, in the presence of a test compound. This experiment was conducted using a Mesoscale Discovery plate. The day before the assay, HT29 cells were split and plated at 50,000 cells/well in complete growth media. After allowing cells to adhere, the media was removed and replaced with media containing 0.1% FBS and incubated overnight. Blank MDS plates were coated with 25 μl/well RSK capture antibody and incubated at 4° C. overnight. The next day, the media was removed and replaced with 100 μl of media containing a test compound and incubated for 120 minutes at 37° C. The media was removed and replaced with 55 μl of well lysis buffer with protease and phosphatase inhibitors provided in the kit, followed by incubation at 4° C. for 30 minutes. 50 μl of lysate was transferred to a blocked MSD plate, followed by incubation at room temperature for 2 hours under constant shaking. The plate was washed 3 times with MSD wash buffer (cat#R617TX), and 25 μl/well phospho-RSK (pRSK) detection antibody was added with an appropriate Sulfo-tagged anti-species detection antibody diluted in 1% BSA in MSD wash buffer. This mixture was incubated for 1 hour at room temperature under constant shaking. The plate was washed 3 times, and 150 μl 1×MSD read buffer was added, followed by signal detection in an MSD plate reader.

[6] = HT-29, read-out: ERK1 PRSK MSD HT29 EC50 (nM)
[7] = HT-29, HT29 cells, read-out: ERK1 PRSK MSD HT29 EC50

Chain of MEK1 activated ERK1 (P27361 whole entry): as the sequence (P27361 whole entry, looked up) above

SMILES | ERK1 Mass Mod (%) [1] | EC50 [2] | IC50 [3] | GI50 [4] | EC50 [5, 6] | EC50 [5, 7]
C=CC(=O)Nc1ccccc1Nc1nc(N[C@@H]2CCC[C@H](C(N)=O)C2)ncc1C(F)(F)F (racemic) [Compound I-2, Rac-cis-3-((4-((2-acrylamidophenyl)amino)-5-(trifluoromethyl)pyrimidin-2-yl)amino)cyclohexanecarboxamide] | E (provided a mass modification of ≧70%) | < 100 nM |  |  |  | 
C=CC(=O)Nc1ccccc1Nc1nc(N[C@@H]2CCC[C@H](C(N)=O)C2)ncc1Cl (racemic) [Compound I-102, Rac-cis-3-(4-(2-acrylamidophenylamino)-5-chloropyrimidin-2-ylamino)cyclohexane carboxamide] | E (provided a mass modification of ≧70%) | < 100 nM | < 100 nM |  |  | 
C=CC(=O)Nc1cc(F)ccc1Nc1nc(N[C@H]2CC[C@@H](F)CC2)ncc1C(F)(F)F [Compound I-8, N-(5-fluoro-2-((2-((cis-4-fluorocyclohexyl)amino)-5-(trifluoromethyl)pyrimidin-4-yl)amino)phenyl)acrylamide] | E (key: E: provided a mass modification of ≧70%; F: provided a mass modification of 31-69%; G: proived a mass modification ≦30%) |  |  | 501 to 999 nM | < 100 nM | 
C=CC(=O)Nc1cc(C)ccc1Nc1nc(N[C@H]2CCCN(C(=O)CF)C2)ncc1C(F)(F)F [Compound I-43, (S)—N-(2-((2-((1-(2-Fluoroacetyl)piperidin-3-yl)amino)-5-(trifluoromethyl)pyrimidin-4-yl)amino)-5-methylphenyl)acrylamide] | E (provided a mass modification of ≧70%) |  | < 100 nM | < 100 nM |  | 101 to 500 nM
C=CC(=O)Nc1ccccc1Nc1nc(Nc2cc(C(N)=O)c(F)cc2C)ncc1C(F)(F)F [Compound I-76, 5-((4-((2-Acrylamidophenyl)amino)-5-(trifluoromethyl)pyrimidin-2-yl)amino)-2-fluoro-4-methylbenzamide] | E (provided a mass modification of ≧70%) | < 100 nM | < 100 nM |  |  | 
C=CC(=O)Nc1ccccc1Nc1nc(Nc2cc(CO)c(F)cc2C)ncc1C(F)(F)F [Compound I-77, N-(2-((2-((4-Fluoro-5-(hydroxymethyl)-2-methylphenyl)amino)-5-(trifluoromethyl)pyrimidin-4-yl)amino)phenyl)acrylamide] | E (provided a mass modification of ≧70%) | < 100 nM | < 100 nM |  |  | 
C=CC(=O)Nc1ccccc1Nc1nc(N[C@H]2CC[C@H](OC)CC2)ncc1Cl [Compound I-100] | F (provided a mass modification of 31-69%) |  |  | > 1000 nM |  | 501 to 999 nM
C=CC(=O)N(C)c1ccccc1Nc1nc(N[C@H]2CC[C@H](O)CC2)ncc1Cl [Compound I-104, N-(2-((5-chloro-2-(trans-(4-hydroxycyclohexyl)amino)pyrimidin-4-yl)amino)phenyl)-N-methylacrylamide] | E (provided a mass modification of ≧70%) |  |  | 501 to 999 nM |  | 501 to 999 nM
C=CC(=O)Nc1cc(OC)ccc1Nc1nc(Nc2ccc(N3CCN(C(C)=O)CC3)cc2OC)ncc1Cl [Compound I-152, N-(2-((2-((4-(4-acetylpiperazin-1-yl)-2-methoxyphenyl)amino)-5-chloropyrimidin-4-yl)amino)-5-methoxyphenyl)acrylamide] | E (provided a mass modification of ≧70%) |  |  | 501 to 999 nM |  | 
C=CC(=O)Nc1ccccc1Nc1nc(Nc2cc(C(=O)NOCCO)ccc2C)ncc1Cl [Compound I-198, 3-((4-((2-acrylamidophenyl)amino)-5-chloropyrimidin-2-yl)amino)-N-(2-hydroxyethoxy)-4-methylbenzamide] | E (provided a mass modification of ≧70%) |  |  | 101 to 500 nM |  | 
C=CC(=O)Nc1ccccc1Nc1nc(Nc2cc(S(N)(=O)=O)ccc2C)ncc1Cl [Compound I-205, N-(2-((5-chloro-2-((2-methyl-5-sulfamoylphenyl)amino)pyrimidin-4-yl)amino)phenyl)acrylamide] | E (provided a mass modification of ≧70%) | < 100 nM | < 100 nM |  |  | 
C=CC(=O)Nc1ccccc1Nc1nc(Nc2cc(N[C@H]3CC[C@@H](O)CC3)nc(OC)c2)ncc1C(F)(F)F [Compound I-292] | E (provided a mass modification of ≧70%) |  |  | < 100 nM |  | < 100 nM
C=CC(=O)Nc1cc(C)ccc1Nc1nc(Nc2cc(N[C@H]3CC[C@@H](O)CC3)nc(OC)c2)ncc1C(F)(F)F [Compound I-326, N-(2-((2-((2-((cis-4-hydroxycyclohexyl)amino)-6-methoxypyridin-4-yl)amino)-5-(trifluoromethyl)pyrimidin-4-yl)amino)-5-methylphenyl)acrylamide] | E (provided a mass modification of ≧70%) |  |  | < 100 nM |  | < 100 nM
C=CC(=O)Nc1cc(C)ccc1Nc1nc(Nc2cc(NC3CCC(C)(O)CC3)nc(OC)c2)ncc1C(F)(F)F (stereo not drawn) [Compound I-327, N-(2-((2-((2-((trans-4-hydroxy-4-methylcyclohexyl)amino)-6-methoxypyridin-4-yl)amino)-5-(trifluoromethyl)pyrimidin-4-yl)amino)-5-methylphenyl)acrylamide] | E (key: E: provided a mass modification of ≧70%; F: provided a mass modification of 31-69%; G: proived a mass modification ≦30%) |  |  | < 100 nM | < 100 nM | 
C=CC(=O)Nc1cc(C)ccc1Nc1nc(Nc2nc(OC)ncc2C(F)(F)F)ncc1C(F)(F)F [Compound I-355, N-(2-((2-((2-methoxy-5-(trifluoromethyl)pyrimidin-4-yl)amino)-5-(trifluoromethyl)pyrimidin-4-yl)amino)-5-methylphenyl)acrylamide] | E (provided a mass modification of ≧70%) |  |  | 101 to 500 nM |  | < 100 nM
C=CC(=O)Nc1cc(C)ccc1Nc1nc(Nc2ncc(F)c(OC)n2)ncc1C(F)(F)F [Compound I-356, N-(2-((2-((5-fluoro-4-methoxypyrimidin-2-yl)amino)-5-(trifluoromethyl)pyrimidin-4-yl)amino)-5-methylphenyl)acrylamide] | E (provided a mass modification of ≧70%) |  |  | 101 to 500 nM |  | 
